Assay results from ChEMBL document CHEMBL3774336, “Identification of spirooxindole and dibenzoxazepine motifs as potent mineralocorticoid receptor antagonists” (Bioorg Med Chem, 2016).

Columns and labels:
[1] = molecular target: T1, Mineralocorticoid receptor (Homo sapiens, UniProt P08235, C808S)
[2] = molecular target: T1, Mineralocorticoid receptor; remark: listed apart in the source
[3] = molecular target: T2, Glucocorticoid receptor (Homo sapiens, UniProt P04150); assay: Inhibition of GST-tagged human glucocorticoid receptor LBD domain expressed in insect cells at by Gal4-based fluorescence polarization assay
T2 sequence (P04150 whole entry): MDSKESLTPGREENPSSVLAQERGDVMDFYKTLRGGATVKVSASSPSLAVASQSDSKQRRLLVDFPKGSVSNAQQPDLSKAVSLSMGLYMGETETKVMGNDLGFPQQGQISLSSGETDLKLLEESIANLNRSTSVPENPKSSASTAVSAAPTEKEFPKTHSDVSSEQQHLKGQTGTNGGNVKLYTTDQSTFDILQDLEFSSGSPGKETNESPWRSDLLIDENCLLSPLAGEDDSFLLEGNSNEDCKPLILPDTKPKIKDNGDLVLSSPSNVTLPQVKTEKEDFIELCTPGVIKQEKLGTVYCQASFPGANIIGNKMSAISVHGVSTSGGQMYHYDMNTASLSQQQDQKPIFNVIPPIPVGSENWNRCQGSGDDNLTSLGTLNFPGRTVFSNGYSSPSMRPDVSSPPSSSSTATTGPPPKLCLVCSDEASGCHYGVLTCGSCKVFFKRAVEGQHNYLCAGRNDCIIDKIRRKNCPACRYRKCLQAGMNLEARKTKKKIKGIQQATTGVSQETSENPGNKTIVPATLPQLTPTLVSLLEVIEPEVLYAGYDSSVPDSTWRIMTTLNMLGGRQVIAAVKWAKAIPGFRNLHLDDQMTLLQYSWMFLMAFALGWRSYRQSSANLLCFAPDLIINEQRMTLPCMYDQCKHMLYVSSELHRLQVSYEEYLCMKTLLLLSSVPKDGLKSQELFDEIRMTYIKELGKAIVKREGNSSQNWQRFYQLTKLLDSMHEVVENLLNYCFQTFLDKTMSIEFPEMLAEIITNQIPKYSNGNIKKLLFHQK

[4] = molecular target: 5-hydroxytryptamine receptor 2B (Homo sapiens) (UniProt P41595); assay: Inhibition of serotonin 5H2B receptor (unknown origin) at 10 uM
Sequence of 5-hydroxytryptamine receptor 2B (Homo sapiens) (P41595 whole entry): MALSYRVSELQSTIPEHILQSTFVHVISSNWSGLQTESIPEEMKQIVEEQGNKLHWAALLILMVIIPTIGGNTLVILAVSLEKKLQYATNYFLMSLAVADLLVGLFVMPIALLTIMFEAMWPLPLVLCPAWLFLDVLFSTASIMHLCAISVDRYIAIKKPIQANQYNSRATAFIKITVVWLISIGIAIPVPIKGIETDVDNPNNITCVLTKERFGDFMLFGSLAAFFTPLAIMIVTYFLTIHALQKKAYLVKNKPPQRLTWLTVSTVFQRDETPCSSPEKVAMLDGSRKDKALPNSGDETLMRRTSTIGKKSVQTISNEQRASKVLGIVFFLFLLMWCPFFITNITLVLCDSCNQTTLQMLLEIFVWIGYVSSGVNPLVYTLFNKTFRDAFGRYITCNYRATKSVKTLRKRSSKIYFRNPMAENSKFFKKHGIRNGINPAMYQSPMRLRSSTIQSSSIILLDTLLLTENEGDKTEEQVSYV

[5] = molecular target: Cytochrome P450 2C9 (Homo sapiens, UniProt P11712); assay: Inhibition of CYP2C9 (unknown origin); assay type: ADME
Sequence of Cytochrome P450 2C9 (P11712 whole entry): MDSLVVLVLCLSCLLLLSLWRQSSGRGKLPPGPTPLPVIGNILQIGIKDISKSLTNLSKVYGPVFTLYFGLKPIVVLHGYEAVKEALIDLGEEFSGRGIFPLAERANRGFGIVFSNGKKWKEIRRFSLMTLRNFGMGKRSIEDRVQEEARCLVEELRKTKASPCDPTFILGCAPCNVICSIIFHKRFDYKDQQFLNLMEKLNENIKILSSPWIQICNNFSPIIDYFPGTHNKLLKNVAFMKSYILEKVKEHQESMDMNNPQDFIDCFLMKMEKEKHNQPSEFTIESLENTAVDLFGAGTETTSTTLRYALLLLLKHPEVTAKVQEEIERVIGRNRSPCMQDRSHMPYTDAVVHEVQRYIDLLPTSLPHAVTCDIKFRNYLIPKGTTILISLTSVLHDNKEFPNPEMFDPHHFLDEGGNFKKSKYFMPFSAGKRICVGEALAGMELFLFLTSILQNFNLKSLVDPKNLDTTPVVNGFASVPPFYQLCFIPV

[6] = molecular target: T3, Alpha-2A adrenergic receptor (Homo sapiens) (UniProt P08913); assay: Inhibition of adrenergic alpha2A receptor (unknown origin) at 10 uM
T3 sequence (whole entry): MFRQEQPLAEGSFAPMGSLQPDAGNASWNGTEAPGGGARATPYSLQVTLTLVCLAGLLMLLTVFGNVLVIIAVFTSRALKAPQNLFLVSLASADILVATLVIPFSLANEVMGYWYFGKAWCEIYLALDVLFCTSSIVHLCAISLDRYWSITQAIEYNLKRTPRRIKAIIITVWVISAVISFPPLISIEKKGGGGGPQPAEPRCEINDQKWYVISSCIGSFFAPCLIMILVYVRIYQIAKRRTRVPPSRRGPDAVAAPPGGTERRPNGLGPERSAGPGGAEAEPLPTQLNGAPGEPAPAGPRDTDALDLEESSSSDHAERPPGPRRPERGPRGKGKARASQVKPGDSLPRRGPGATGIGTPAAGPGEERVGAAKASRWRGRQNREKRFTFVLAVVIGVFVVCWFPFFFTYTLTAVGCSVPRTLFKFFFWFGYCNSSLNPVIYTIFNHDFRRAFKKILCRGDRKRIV

[7] = molecular target: T4, Progesterone receptor (Homo sapiens, UniProt P06401); assay: Inhibition of GST-tagged human progesterone receptor LBD domain expressed in insect cells by Gal4-based fluorescence polarization assay
T4 sequence (P06401 whole entry): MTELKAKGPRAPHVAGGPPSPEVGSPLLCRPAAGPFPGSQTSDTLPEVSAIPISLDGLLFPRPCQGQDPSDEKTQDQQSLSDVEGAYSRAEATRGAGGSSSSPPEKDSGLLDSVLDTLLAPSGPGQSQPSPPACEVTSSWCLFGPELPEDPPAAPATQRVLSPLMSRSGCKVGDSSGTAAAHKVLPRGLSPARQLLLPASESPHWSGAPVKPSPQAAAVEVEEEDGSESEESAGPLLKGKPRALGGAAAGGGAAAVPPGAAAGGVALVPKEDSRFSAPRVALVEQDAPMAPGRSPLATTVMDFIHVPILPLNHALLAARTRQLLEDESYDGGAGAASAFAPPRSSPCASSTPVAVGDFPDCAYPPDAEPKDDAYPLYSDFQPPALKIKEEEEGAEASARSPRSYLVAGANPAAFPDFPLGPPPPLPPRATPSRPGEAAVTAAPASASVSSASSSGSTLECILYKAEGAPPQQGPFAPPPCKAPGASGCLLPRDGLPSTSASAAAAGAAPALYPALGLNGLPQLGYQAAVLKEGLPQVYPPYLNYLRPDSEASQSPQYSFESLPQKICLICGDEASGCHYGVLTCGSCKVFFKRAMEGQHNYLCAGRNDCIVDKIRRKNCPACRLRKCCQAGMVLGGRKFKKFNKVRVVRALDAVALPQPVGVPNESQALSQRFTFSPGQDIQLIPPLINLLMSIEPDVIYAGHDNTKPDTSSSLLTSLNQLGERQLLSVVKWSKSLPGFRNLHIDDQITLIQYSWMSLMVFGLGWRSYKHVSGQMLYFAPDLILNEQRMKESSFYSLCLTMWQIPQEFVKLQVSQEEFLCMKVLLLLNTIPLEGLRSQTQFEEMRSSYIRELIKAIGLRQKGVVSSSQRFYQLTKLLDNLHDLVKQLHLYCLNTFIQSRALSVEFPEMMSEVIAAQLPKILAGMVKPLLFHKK

[8] = molecular target: T5, Estrogen receptor (Homo sapiens, UniProt P03372); assay: Inhibition of estrogen receptor (unknown origin) by Gal4-based luciferase assay
T5 sequence (P03372 whole entry): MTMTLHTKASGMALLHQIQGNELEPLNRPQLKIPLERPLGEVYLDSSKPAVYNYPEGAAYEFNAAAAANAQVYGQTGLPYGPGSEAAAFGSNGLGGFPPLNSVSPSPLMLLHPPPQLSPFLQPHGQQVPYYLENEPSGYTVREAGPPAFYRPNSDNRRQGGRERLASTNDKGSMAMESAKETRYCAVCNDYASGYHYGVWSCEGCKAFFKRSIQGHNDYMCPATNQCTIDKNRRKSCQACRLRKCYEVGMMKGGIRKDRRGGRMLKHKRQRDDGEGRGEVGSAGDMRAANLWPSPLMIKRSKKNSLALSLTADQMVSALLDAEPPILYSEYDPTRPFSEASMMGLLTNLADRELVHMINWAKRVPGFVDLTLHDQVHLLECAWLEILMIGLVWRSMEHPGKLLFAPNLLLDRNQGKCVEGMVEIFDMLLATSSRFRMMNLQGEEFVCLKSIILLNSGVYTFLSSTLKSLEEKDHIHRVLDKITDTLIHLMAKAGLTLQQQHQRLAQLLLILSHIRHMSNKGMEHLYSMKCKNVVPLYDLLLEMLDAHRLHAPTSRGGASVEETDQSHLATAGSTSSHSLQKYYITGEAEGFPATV

[9] = molecular target: Cytochrome P450 2D6 (Homo sapiens, UniProt P10635); assay: Inhibition of CYP2D6 (unknown origin); assay type: ADME
Sequence of Cytochrome P450 2D6 (P10635 whole entry): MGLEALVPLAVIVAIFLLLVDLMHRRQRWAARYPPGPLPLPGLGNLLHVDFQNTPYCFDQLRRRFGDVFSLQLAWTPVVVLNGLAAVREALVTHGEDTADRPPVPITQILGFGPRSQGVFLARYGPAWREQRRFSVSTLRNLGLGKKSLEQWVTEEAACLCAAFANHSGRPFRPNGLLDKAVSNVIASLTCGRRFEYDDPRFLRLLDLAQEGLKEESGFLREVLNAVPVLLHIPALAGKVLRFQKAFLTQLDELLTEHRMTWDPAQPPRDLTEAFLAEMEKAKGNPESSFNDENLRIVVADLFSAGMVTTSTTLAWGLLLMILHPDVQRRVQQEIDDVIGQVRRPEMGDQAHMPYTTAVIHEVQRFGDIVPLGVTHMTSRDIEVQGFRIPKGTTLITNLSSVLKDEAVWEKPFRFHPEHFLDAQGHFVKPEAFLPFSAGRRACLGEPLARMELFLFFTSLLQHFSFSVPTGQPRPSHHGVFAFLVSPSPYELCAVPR

[10] = molecular target: hERG (KCNH2) (Homo sapiens, UniProt Q12809); assay: Inhibition of human ERG (unknown origin) at 10 uM
Sequence of hERG (KCNH2) (Q12809 whole entry): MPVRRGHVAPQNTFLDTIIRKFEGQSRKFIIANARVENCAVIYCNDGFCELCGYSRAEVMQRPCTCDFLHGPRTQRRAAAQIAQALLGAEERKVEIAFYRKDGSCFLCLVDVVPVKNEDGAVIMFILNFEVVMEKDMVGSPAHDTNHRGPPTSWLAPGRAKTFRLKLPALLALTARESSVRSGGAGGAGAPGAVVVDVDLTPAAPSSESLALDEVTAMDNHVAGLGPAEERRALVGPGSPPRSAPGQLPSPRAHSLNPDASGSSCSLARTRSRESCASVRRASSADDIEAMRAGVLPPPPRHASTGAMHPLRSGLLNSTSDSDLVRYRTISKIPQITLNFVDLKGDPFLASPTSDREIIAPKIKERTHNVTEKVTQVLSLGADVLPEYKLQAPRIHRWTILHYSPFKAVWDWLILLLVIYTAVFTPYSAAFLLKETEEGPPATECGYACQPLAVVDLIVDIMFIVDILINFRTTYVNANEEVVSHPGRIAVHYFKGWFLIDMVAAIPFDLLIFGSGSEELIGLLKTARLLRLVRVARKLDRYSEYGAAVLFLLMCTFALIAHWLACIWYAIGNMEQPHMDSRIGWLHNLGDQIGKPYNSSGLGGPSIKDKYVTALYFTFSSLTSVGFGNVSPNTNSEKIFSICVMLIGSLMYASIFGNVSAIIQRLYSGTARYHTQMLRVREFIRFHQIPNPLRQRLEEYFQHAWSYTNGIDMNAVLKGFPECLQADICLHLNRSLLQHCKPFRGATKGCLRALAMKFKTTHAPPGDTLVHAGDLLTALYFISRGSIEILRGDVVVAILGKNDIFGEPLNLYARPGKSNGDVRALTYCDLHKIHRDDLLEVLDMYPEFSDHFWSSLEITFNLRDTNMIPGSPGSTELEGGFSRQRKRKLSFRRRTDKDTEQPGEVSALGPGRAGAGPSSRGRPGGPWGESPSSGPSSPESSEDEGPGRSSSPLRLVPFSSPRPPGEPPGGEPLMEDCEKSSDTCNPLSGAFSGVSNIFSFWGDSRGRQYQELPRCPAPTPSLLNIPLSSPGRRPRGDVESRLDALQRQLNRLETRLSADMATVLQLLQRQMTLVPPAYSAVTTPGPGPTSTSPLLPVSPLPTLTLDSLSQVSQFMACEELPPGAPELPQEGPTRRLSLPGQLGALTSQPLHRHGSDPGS

[11] = molecular target: Cytochrome P450 3A4 (Homo sapiens, UniProt P08684)
Sequence of Cytochrome P450 3A4 (P08684 whole entry): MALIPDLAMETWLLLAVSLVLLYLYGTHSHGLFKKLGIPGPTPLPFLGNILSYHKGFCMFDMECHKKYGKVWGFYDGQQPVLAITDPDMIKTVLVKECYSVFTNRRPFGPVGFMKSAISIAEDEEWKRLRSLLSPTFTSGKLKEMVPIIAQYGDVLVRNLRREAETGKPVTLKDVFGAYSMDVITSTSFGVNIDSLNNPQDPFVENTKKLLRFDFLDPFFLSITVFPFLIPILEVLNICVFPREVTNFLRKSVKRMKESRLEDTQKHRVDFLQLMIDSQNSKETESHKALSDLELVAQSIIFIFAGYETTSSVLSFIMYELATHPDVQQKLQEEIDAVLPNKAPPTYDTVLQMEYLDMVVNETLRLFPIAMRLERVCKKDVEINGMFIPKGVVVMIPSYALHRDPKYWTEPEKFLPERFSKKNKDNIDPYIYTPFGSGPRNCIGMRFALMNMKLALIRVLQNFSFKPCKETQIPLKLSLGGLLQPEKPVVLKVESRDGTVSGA
Description: Inhibition of CYP3A4 (unknown origin)

[12] = molecular target: Histamine H1 receptor (Homo sapiens) (UniProt P35367); assay: Inhibition of histamine H1 receptor (unknown origin) at 10 uM
Sequence of Histamine H1 receptor (Homo sapiens) (P35367 whole entry): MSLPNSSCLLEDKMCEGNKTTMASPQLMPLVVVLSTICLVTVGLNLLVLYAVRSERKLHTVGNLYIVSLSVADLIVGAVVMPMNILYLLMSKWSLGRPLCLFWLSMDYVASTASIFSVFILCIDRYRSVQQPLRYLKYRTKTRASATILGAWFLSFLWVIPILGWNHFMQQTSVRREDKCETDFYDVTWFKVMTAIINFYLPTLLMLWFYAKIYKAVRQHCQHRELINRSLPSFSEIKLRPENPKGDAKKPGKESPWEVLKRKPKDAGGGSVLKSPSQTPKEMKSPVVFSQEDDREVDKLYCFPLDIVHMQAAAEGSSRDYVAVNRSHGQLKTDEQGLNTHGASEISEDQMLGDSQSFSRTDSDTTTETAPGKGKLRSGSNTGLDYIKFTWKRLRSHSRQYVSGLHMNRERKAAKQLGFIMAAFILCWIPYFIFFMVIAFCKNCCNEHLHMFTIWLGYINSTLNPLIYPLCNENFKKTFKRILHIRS

[13] = Half life of compound in rat liver microsomes; assay type: ADME

T1 sequence (P08235 whole entry C808S): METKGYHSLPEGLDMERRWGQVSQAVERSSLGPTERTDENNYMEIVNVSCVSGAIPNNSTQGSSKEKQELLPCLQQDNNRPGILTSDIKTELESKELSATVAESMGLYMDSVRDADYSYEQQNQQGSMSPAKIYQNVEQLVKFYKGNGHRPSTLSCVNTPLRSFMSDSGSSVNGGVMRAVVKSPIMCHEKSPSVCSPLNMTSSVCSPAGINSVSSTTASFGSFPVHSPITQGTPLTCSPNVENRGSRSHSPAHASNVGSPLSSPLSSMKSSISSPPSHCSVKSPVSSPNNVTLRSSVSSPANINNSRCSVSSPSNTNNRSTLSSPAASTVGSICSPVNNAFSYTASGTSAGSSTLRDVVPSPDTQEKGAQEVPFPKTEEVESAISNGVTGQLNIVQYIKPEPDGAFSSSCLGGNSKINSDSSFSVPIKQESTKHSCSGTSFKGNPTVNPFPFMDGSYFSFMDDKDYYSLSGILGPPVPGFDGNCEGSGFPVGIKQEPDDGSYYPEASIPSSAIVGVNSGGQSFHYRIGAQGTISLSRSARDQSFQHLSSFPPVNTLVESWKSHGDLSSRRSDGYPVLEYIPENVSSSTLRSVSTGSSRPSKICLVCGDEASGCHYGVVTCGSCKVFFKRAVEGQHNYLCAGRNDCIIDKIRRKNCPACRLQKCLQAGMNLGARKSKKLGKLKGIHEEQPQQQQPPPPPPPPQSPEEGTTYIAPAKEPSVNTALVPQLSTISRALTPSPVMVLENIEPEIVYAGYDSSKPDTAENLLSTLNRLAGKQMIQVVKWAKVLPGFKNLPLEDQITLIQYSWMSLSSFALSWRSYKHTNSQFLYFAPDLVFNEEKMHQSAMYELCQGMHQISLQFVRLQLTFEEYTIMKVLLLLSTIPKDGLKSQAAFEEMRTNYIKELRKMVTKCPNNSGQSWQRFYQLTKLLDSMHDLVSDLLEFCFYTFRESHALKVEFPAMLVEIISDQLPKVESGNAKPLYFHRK

| SMILES | Ki [1] [µM] | IC50 [2] [µM] | IC50 [3] [µM] | inhibition [4] [%] | IC50 [5] [µM] | inhibition [6] [%] | IC50 [7] [µM] | IC50 [8] [µM] | IC50 [9] [µM] | IC50 [11] [µM] | inhibition [12] [%] | half-life [13] [min] | inhibition at 10 µM [10] [%] |
| --- | --- | --- | --- | --- | --- | --- | --- | --- | --- | --- | --- | --- | --- |
| O=C1COc2ccc(N(Cc3cccnc3)c3ccc(F)cc3)cc2N1 | 1.45 | 1.51 |  |  |  |  |  |  |  |  |  |  |  |
| C[N+]1([O-])CCC2(CC1)C(=O)Nc1cc(/C=C3\c4ccccc4COc4cc(F)ccc43)ccc12 (configuration not stated) | 0.019 | 0.044 | > 37 | 66 | 17 | 60 | > 37 | > 37 | > 30 | 26.1 | 65 | > 60 | 55 |
| O=C(O)CCN1CCC2(CC1)C(=O)Nc1cc(/C=C3\c4ccccc4COc4cc(F)ccc43)ccc12 | 0.016 | 0.029 | > 12 | 36 | 12.6 | 75 | > 12 | > 12 | 29.9 | 26 | 60 | > 60 | 32 |
| CN(C)CC(=O)N1CCC2(CC1)C(=O)Nc1cc(/C=C3\c4ccccc4COc4cc(F)ccc43)ccc12 | 0.006 | 0.006 | > 5 | 79 | 3.26 | 88 | > 5 | > 40 | 7.75 | 4.78 | 77 | 53 | 98 |
| O=C1Nc2cc(S(=O)(=O)N3c4ccccc4COc4cc(F)ccc43)ccc2C12CCNCC2 | 5.49 | 5.22 |  |  |  |  |  |  |  |  |  |  |  |
| O=c1[nH]c2cc(/C=C3\c4ccccc4COc4cc(F)ccc43)ccc2n1[C@@H]1C[C@@H]2COCCN2C1 | 0.009 | 0.023 | > 25 | 62 | 1.6 | 76 | > 25 | > 25 | > 30 | 5.81 | 49 | 34 | 62 |
| CC1(C)OC(=S)Nc2ccc(S(=O)(=O)N3c4ccccc4COc4cc(F)ccc43)cc21 | 0.006 | 0.021 | 0.651 | 71 | 0.397 | 85 | > 2 | > 2 | 4.1 | 0.363 | 33 | > 60 | 48 |
| O=C1COc2ccc(CCc3ccc(F)cc3F)cc2N1 | 0.02 | 0.103 |  |  |  |  |  |  |  |  |  |  |  |
| O=C1COc2ccc(S(=O)(=O)N3c4ccccc4COc4cc(F)ccc43)cc2N1 | 0.129 | 0.056 |  | 34 | 1.56 | 24 |  |  | 21.3 |  | 1 |  | 28 |
| O=C1Nc2cc(CN3c4ccccc4COc4cc(F)ccc43)ccc2C12CCNCC2 | 1.08 | 2.99 |  |  |  |  |  |  |  |  |  |  |  |
| O=C1CCc2c(/C=C3\c4ccccc4COc4cc(F)ccc43)cccc21 | 0.013 | 0.148 |  |  |  |  |  |  |  |  |  |  |  |
| O=C1COc2ccc(C#Cc3ccc(F)cc3F)cc2N1 | 0.144 | 0.772 |  |  |  |  |  |  |  |  |  |  |  |
| O=C1COc2ccc(/C=C(\c3ccccc3)c3ccc(F)cc3F)cc2N1 | 0.055 | 1.57 |  |  |  |  |  |  |  |  |  |  |  |
| O=C(c1ccc2c(c1)NC(=O)C21CCNCC1)N1c2ccccc2COc2cc(F)ccc21 | 1.09 | 4.93 |  |  |  |  |  |  |  |  |  |  |  |
| O=C1COc2ccc(/C=C\c3ccc(F)cc3F)cc2N1 | 0.258 | 1.51 |  |  |  |  |  |  |  |  |  |  |  |

Continued, in another order:

| Ki [1] [µM] | IC50 [2] [µM] | IC50 [3] [µM] | inhibition [4] [%] | IC50 [5] [µM] | inhibition [6] [%] | IC50 [7] [µM] | IC50 [8] [µM] | IC50 [9] [µM] | IC50 [11] [µM] | inhibition [12] [%] | half-life [13] [min] | SMILES | inhibition at 10 µM [10] [%] |
| --- | --- | --- | --- | --- | --- | --- | --- | --- | --- | --- | --- | --- | --- |
| 0.694 | 2.55 |  |  |  |  |  |  |  |  |  |  | O=S1(=O)Cc2ccc(/C=C3\c4ccccc4COc4cc(F)ccc43)cc2N1 |  |
| > 0.01 | > 0.01 |  |  |  |  |  |  |  |  |  |  | O=C1COc2ccc(S(=O)(=O)N(Cc3cccnc3)c3ccc(F)cc3)cc2N1 |  |
| 0.98 | 1.8 |  |  |  |  |  |  |  |  |  |  | O=C1COc2ccc(COc3ccc(F)cc3F)cc2N1 |  |
| 0.162 | 2.3 |  |  |  |  |  |  |  |  |  |  | O=C1COc2ccc(/C=C/c3ccc(F)cc3F)cc2N1 |  |
| 0.031 | 0.176 |  | 94 | 0.649 | 72 |  |  | 16.4 | 5.54 | 47 |  | O=C1COc2ccc(CN3c4ccccc4COc4cc(F)ccc43)cc2N1 | 29 |
| 0.014 | 0.318 |  |  |  |  |  |  |  |  |  |  | OC1CCc2c(/C=C3\c4ccccc4COc4cc(F)ccc43)cccc21 (configuration not stated) |  |
| 0.23 | 0.306 |  |  |  |  |  |  |  |  |  |  | CN(Cc1ccc2c(c1)NC(=O)CO2)c1ccc(F)cc1F |  |
